Assay results: patent publication US8697662B2, “Methods for treating Kaposi sarcoma” (PTC Therapeutics, Inc., priority 2009, dated 2014)
Marks after values point to notes of the source that are not given here.

Experiments:
[1] = Cardiovascular safety pharmacology study in awake telemeterized dogs; type: in vivo, beagle dogs; conditions: single oral doses of 30, 60, and 120 mg/kg, male dogs
[2] = tested on: SKNEP orthotopic xenografts; experiment: Orthotopic SKNEP Ewing sarcoma tumor model (kidney capsule), tumor weight; type: in vivo; conditions: 5 weeks of treatment
From the text: Experimental Design. In orthotopic tumor models, human tumor cells are implanted into the mouse in an organ that corresponds to the location from which the tumors arise. Such models may provide a better predictor of clinical efficacy than injection of tumors into the flanks of nude mice. See Hoffman, Invest. New Drugs 1999, 17(4):343-59. SY5Y neuroblastoma or SKNEP Ewing sarcoma tumor cells (1×10^6 cells/mouse) were implanted into the kidney capsule of female athymic nude mice according to published methods. See Huang et al., Proc. Natl. Acad. Sci. USA 2003, 100(13):7785-90. One week after implantation of each type of tumor, mice were divided into 2 groups and were administered a test Compound as shown in Table 21.
After 5 weeks of treatment, the mice were sacrificed, and the weights of the tumors were assessed.

[3] = molecular target: human-ether-a-go-go-related gene (hERG) current (Homo sapiens, UniProt Q12809); experiment: Higher throughput hERG assay; type: biochemical
[4] = tested on: LNCaP xenografts; experiment: Tumor growth inhibition in LNCaP prostate cancer xenografts; type: in vivo, athymic nude mice
Procedure: Experimental Design. The LNCaP cell line is derived from a lymph node metastasis.
Tumor size was measured by calipers at periodic intervals during the study. When the mean tumor size in a mouse exceeded 1500 mm^3, mice in that group were sacrificed and both tumor and plasma were assayed for pathologic VEGF concentration as described in Section 9.1.1.1.

[5] = tested on: bacterial reverse mutation; experiment: Bacterial reverse mutation study; conditions: with and without exogenous metabolic activation
Procedure: (§1) Genotoxicity was assessed in a battery of in vitro and in vivo studies that included a bacterial reverse mutation study, a chromosome aberration study in Chinese hamster ovary (CHO) cells, and a micronucleus study in rats by the oral route. The in vitro studies were performed in the presence and absence of an exogenous metabolic activation system.

[6] = molecular target: T1, CYP3A4 (Homo sapiens, UniProt P08684); experiment: CYP inhibition in human hepatic microsomes or recombinant isoenzymes: CYP3A4; type: in vitro ADME
T1 construct: host or cells: human hepatic microsomes or human recombinant isoenzymes
From the text: It is possible that in certain clinical trial subjects, such agents may need to be adjusted for dosing or replaced by alternative agents that are not metabolized by CYP2D6, particularly when such agents may have a low therapeutic index.

[7] = Micronucleus study in rats by the oral route; type: in vivo
Procedure: as §1

[8] = tested on: HT1080 xenografts; experiment: Dose response assessment in nude mice bearing HT1080 xenografts (tumor and plasma human VEGF, tumor size, trough plasma level); type: in vivo, athymic nude mice
Procedure: Experimental Study Design. HT1080 cells (5×10^6 cells/mouse) were implanted subcutaneously in male athymic nude mice.
Tumor size was measured using calipers at periodic intervals during the study (data shown in Section 9.2.2). […] Mice were sacrificed, and excised tumors were homogenized in buffer containing protease inhibitors. Both terminal intratumoral and pathologic plasma human VEGF levels were measured using an ELISA that recognizes human VEGF121 and VEGF165 (as described in Section 9.1.1.1). Intratumoral VEGF levels were normalized to the total tumor protein concentration, while pathologic plasma human VEGF levels were expressed in pg/mL of plasma.
Experimental Design. The experimental design was reported in Section 9.1.2.2.

[9] = 7-day oral toxicity study in rats; conditions: Sprague Dawley, rat, in vivo; for NOAEL at 7 days: oral gavage
Procedure: A battery of genotoxicity studies was also performed. […] The L23 vehicle was used.
Maximal exposures occurred at a dose of 120 mg/kg/day.

[10] = tested on: HT1080 cells; experiment: Anchorage-independent colony formation of HT1080 cells in agar; type: cell-based, human; conditions: 10 and 50 nM, day 18; not statistically significant
Procedure: Experimental Design. HT1080 cells growing in monolayer were trypsinized, counted and suspended in a 0.35% agar noble/1× complete DMEM solution at 37° C. at a concentration of 2,500 cells/mL. One ml of this solution was layered over a semisolid base consisting of 0.5 mL of 0.75% agar noble/1× complete DMEM in a six well tissue culture plate. […] Tissue culture plates were then returned to the incubator and colonies were allowed to form. […] On day 18 the vehicle-treated wells had colonies of sufficient size to count (>50 cells/colony). At this time, for increased visualization, 1.5 mL of a 2× working volume of (3-(4,5-Dimethylthiazol-2-yl)-2,5-diphenyltetrazolium bromide, a tetrazole) (MTT, Invitrogen, Cat #C35007) was added and the plates were returned to the incubator for 2 hours until colonies were stained by conversion of the MTT to purple formazan crystals. Colonies were then visually counted under a dissecting microscope.

[11] = Phase 1 escalating multiple-dose study in healthy volunteers: pharmacokinetics (Table 28); type: in vivo, human
Procedure: The study was performed under the oversight of the French health authorities. The study was not performed under an IND.
Methods. The trial was a Phase 1, randomized, escalating multiple dose, single center study conducted in 2 stages.
Capsules contained 2 mg or 20 mg of active substance.
Capsules contained 20 mg or 25 mg of active substance.
Noncompartmental methods were used to compute Tmax, Cmax, and AUC. Dose proportionality and sex effect were evaluated using ANOVA on log transformed PK parameters using dose, sex, and dose by sex as fixed factors.

[12] = Respiratory safety pharmacology study in awake telemeterized dogs; type: in vivo, beagle dogs; conditions: single oral doses of 30, 60, and 120 mg/kg, male dogs
[13] = 7-day oral toxicity study in dogs; type: in vivo

T1 sequence (P08684 whole entry): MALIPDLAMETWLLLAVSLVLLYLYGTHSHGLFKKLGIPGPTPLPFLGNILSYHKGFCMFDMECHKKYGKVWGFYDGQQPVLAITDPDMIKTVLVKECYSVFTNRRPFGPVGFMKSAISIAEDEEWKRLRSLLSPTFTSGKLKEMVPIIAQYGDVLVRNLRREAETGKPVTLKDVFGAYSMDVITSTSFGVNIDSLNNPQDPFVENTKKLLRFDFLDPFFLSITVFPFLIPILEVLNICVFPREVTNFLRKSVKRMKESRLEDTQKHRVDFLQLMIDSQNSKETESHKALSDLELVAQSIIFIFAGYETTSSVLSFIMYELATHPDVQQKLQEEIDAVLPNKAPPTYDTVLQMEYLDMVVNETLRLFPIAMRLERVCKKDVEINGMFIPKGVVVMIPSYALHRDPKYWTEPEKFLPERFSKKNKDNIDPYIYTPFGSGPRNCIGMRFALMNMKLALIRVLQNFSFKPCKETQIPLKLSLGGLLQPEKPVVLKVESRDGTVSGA
human-ether-a-go-go-related gene (hERG) current, sequence (Q12809 whole entry): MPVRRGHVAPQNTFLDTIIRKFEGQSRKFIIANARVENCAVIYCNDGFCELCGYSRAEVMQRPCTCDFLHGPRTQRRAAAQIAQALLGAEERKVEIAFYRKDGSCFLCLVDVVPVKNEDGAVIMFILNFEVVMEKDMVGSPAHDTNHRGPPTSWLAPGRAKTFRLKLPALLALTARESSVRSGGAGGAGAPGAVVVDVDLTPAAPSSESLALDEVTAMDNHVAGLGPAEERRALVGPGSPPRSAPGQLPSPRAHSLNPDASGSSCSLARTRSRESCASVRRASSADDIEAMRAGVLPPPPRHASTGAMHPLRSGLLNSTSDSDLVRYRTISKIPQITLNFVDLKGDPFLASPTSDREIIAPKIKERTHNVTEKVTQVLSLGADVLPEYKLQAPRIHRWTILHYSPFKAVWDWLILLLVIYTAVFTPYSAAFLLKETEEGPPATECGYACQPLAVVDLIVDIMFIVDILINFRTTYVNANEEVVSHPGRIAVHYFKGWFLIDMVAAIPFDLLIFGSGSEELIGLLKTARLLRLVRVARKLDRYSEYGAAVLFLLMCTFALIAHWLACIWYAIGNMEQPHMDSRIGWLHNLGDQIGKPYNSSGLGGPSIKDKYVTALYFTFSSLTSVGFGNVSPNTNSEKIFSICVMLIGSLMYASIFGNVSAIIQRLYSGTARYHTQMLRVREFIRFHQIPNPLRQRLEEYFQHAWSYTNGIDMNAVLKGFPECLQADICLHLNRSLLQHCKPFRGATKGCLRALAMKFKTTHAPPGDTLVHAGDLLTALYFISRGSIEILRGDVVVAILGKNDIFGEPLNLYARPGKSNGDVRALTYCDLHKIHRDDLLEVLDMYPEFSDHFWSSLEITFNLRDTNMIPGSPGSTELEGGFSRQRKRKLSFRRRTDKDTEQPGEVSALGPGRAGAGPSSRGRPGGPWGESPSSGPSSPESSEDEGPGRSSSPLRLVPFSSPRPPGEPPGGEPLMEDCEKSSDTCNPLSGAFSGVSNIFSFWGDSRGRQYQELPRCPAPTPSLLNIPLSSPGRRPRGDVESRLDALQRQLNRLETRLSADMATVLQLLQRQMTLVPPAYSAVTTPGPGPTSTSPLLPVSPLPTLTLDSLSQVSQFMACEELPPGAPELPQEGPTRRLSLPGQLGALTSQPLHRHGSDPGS

Q: What does the source list for `COc1ccc(C2c3[nH]c4ccc(Cl)cc4c3CCN2C(=O)Oc2ccc(Cl)cc2)cc1` (racemic) [Compound #10]?
A: cardiovascular or electrocardiographic (including QT interval) parameters [1]: no meaningful changes; tumor growth (tumor weight) (in words) [2]: completely prevented growth; inhibition of hERG current (in words) [3]: negative for meaningful inhibition; time to tumor progression (time to reach ≧1000 mm^3) (in words) ([4]; 10 mg/kg M-W-F): prolonged; intratumoral VEGF concentrations adjusted for tumor size (in words) ([4]; 10 mg/kg M-W-F, day of sacrifice): reduced; Mean % Inhibition of Intratumoral VEGF vs Vehicle at Sacrifice ([4]; LNCaP xenografts in male nude mice, 10 mg/kg oral M-W-F, adjusted for tumor size): 51^d %; genotoxic effects [5]: no evidence of genotoxic effects; inhibition of CYP3A4 (in words) [6]: No meaningful inhibition; genotoxic effects [7]: no evidence of genotoxic effects; pathologic human VEGF levels in tumors and in plasma (in words) ([8]; all Compound #10 dose groups (0.3 to 10 mg/kg oral), 18 days): significantly suppressed; human VEGF reductions (in words) ([8]; all dose levels of >=1 mg/kg BID): essentially maximal; antitumor activity, tumor size over time (in words) ([8]; dose levels of >=1 mg/kg BID): maximum antitumor activity; tumor and pathologic plasma human VEGF concentrations (in words) ([8]; suboptimal dose of 0.3 mg/kg BID): partial reductions; dose at which maximal exposures occurred ([9]; 7 days): 120 mg/kg/day; NOAEL at 7 days ([9]; female, read-out: NOAEL for 7-days, female rats): 120 mg/kg/day; NOAEL at 7 days ([9]; male, read-out: NOAEL for 7-days, male rats): 40 mg/kg/day; number of colonies formed (in words) [10]: modest trend toward a reduced number of colonies; oral bioavailability (in words) [11]: orally bioavailable; increases in mean Cmax and AUC0-24 with dose (in words) ([11]; Stage 1 and Stage 2): generally dose proportional; target trough plasma concentration of ~0.1 to […] (in words) ([11]; all dose levels): achieved; accumulation of Cmax and AUC0-24, Day 1 to Day 7 ([11]; continuous dosing 7 days): ~2 fold; lag time before appearance in plasma ([11]; oral capsules): ~30 min; respiratory rate, core body temperature, arterial blood gases, arterial pH, arterial bicarbonate [12]: no dose dependent or biologically significant changes; NOAEL at 7 days ([13]; both sexes, beagle, dog, in vivo, dogs, oral capsules): 60 mg/kg/day; dose at which exposures were maximal ([13]; dogs, 10, 30, or 60 mg/kg/dose BID, 7 days): 30 mg/kg/dose BID; treatment-related clinical finding ([13]; dogs, males and females, 10, 30, or 60 mg/kg/dose BID, 7 days): increased incidence and frequency of soft stools; NOAEL for 7-days ([13]; dogs, oral capsules): 30 mg/kg/dose BID
